Structures can show the parent of a compound that is named as a salt.
How the values were obtained:
[1] = system: direct infusion of NMDA or quinolinate into the rat striatum; conditions: cited from earlier work
[2] = system: NMDA-induced Striatal Lesion; experiment: Protection Against NMDA-induced Striatal Lesion (% control enzyme activity, lesioned vs contralateral striatum); type: in vivo, Male Sprague Dawley rats; conditions: ip, NMDA 150 nanomoles, 7 days post surgery; for % Control Enzyme Activity ChAT: choline acetyltransferase; for % Control Enzyme Activity GAD: glutamic acid decarboxylase
Source text: Glutamate, aspartate and other excitatory amino acids (EAA) are putative neurotransmitters at vertebrate CNS excitatory synapses. […] The neurotoxicity of EAA has led to the implication of their involvement in human neurodegenerative disorders such as Alzheimer's Disease. Subacute or chronic overexposure to endogenous neurotoxin may lead to the slow degeneration of neurons (Olney, J., Excitotoxic Amino Acids and Neuropsychiatric Disorders. Annu. Rev. Pharmacol. Toxicol. 30:47-71, 1990). […] The striatal lesion paradigm can be used to assess the neuroprotective potential of novel compounds.
Testing of the compounds was carried out as follows: Male Sprague Dawley rats (Charles River) are housed under standard laboratory conditions as outlined in the "Guide for the Care and Use of Laboratory Animals" (National Institutes of Health Publications No. 85-23, Revised 1985). Food and water were provided ad libitum; lights were on from 0600-1800 h. Sterile techniques were used during surgery.
Rats (250-320 g) were anesthetized with chloral hydrate (400 mg/kg i.p., 10 ml/kg) and mounted in a David Kopf® stereotaxic instrument. An incision was made in the scalp and the skull surface was exposed. All coordinates were taken from the point on the skull where bregma meets the midline suture. The adjustable incisor bar was set at 3.3 mm below horizontal but may be adjusted. A 1-2 mm burr hole in the skull was made with a dental drill 0.5 mm anterior to bregma and 3.0 mm lateral from the midline (Paxinos, G. and Watson, C., The Rat Brain in Stereotaxic Coordinates. New York: Academic Press, 2nd ed., 1986). […] The cannula remained in place for one minute before infusion began. A total volume of 1 μl of NMDA (150 nanomoles per μl) solution was infused slowly (0.2 μl/2 min, total time of infusion was 10 min). The cannula remained in place for 5 minutes and then was slowly withdrawn (approx. 0.1 mm every 12 sec). NMDA was dissolved in 0.1M sodium phosphate buffer, pH 7.4. An equally osmolar solution of sodium chloride was used as a control in the contralateral striatum. The burr hole was sealed with bone wax and the scalp sutured closed.
The animals were sacrificed by decapitation seven days following surgery. The striatum was dissected over ice. […]
The experimental compounds were dissolved in 0.9% NaCl or appropriate vehicle and administered i.p. either pre- and/or post-excitotoxin infusion. […] Analysis of variance was calculated by the Newman-Keuls test with the PHARM/PCS computer program (Tallarida, R. J. and Murray, R. B., Manual of Pharmacologic Calculations with Computer Programs, Springer-Verlag, New York, 1987).

[3] = system: global ischemia in the gerbil; conditions: cited from earlier work
[4] = system: striatal neurons, infusion of quinolinate; conditions: 100 mg/kg, i.p., 1 hour after infusion of quinolinate; cited from earlier work
[5] = system: neurodegeneration in the rat striatum caused by intracerebral infusion of NMDA; conditions: cited from earlier work

O=C(O)c1cc(O)c2ccc(Cl)cc2n1 [7-Chlorokynurenate]
neuroprotection [1]: significant neuroprotection

NCC(=O)Nn1ccc2ccccc21 [[N-(1H-Indol-1-yl)-2-amino]acetamide hydrochloride]
% Control Enzyme Activity ChAT ([2]; 100 mg/kg, pretreatment 30 min): 68 % Control | % Control Enzyme Activity GAD ([2]; 100 mg/kg, pretreatment 30 min): 63 % Control

NC1CCN(O)C1=O (stereo not drawn) [HA-966, 3-amino-1-hydroxypyrrolid-2-one]
neuroprotection [1]: significant neuroprotection

NS(=O)(=O)c1cccc2c1c([N+](=O)[O-])cc1nc(O)c(O)nc12 [NBQX, 2,3-Dihydroxy-6-nitro-7-sulfamoylbenzo(F)quinoxaline]
protection against global ischemia [3]: protects against global ischemia in the gerbil

O=C(O)C1CN(CCCP(=O)(O)O)CCN1 (stereo not drawn) [CPP]
protection of striatal neurons [4]: partial protection of striatal neurons

C[C@]12N[C@H](Cc3ccccc31)c1ccccc12 [dizocilpine]
% Control Enzyme Activity ChAT ([2]; 10 mg/kg, pretreatment 60 min): 104 % Control | % Control Enzyme Activity GAD ([2]; 10 mg/kg, pretreatment 60 min): 110 % Control | protection against neurodegeneration in the rat striatum [5]: protected against neurodegeneration in the rat striatum

From US5319096A, “(1H-indol-1-yl)-2-(amino) acetamides and related (1H-indol-1-yl)-(aminoalkyl)amides, pharmaceutical composition and use” (Hoechst-Roussel Pharmaceuticals Inc., priority 1992, dated 1994)
